In one assay the target is PAK3 (Homo sapiens, UniProt O75914). Kind of assay: Kinase screening. The format is biochemical. As to the method:
(§1) Compound 1 was tested for its efficacy in inhibiting activities of 40 kinases and binding with 12 GPCRs both as an antagonist and an agonist.

In another assay the target is JAK2 (Homo sapiens, UniProt O60674). Kind of assay: Kinase screening. The format is biochemical. As to the method: as §1
The next assay addresses PAK1 (Homo sapiens, UniProt Q13153). Briefly: Kinase screening. It counts as biochemical. How it is done: as §1
The target of another assay is LIMK1 (Homo sapiens, UniProt P53667). Briefly: Kinase screening. The format is biochemical. As to the method:
as §1

The next assay has as its target MAPK3 (ERK1) (Homo sapiens, UniProt P27361). Briefly: Kinase screening. The format is biochemical. As to the method:
as §1

A further assay addresses MAP3K2 (MEKK2) (Homo sapiens, UniProt Q9Y2U5). Kind of assay: Kinase screening. The format is biochemical. As to the method: as §1
The next assay deals with SRC (Homo sapiens, UniProt P12931). Kind of assay: Kinase screening. It counts as biochemical. How it is done:
as §1

A further assay addresses PIK3C2A (PI3K-C2 alpha) (Homo sapiens, UniProt O00443). Briefly: Kinase screening. It counts as biochemical. As to the method:
as §1

A further assay addresses CDC42 BPA (MRCKA) (Homo sapiens, UniProt Q5VT25). Briefly: Kinase screening. It counts as biochemical. How it is done:
as §1

A further assay addresses SYK (Homo sapiens, UniProt P43405). Kind of assay: Kinase screening. It counts as biochemical. How it is done: as §1
The target of a further assay is KIT (Homo sapiens, UniProt P10721). Kind of assay: Kinase screening. The format is biochemical. How it is done: as §1
Another assay has as its target MYLK (MLCK) (Homo sapiens, UniProt Q15746). Briefly: Kinase screening. The format is biochemical. How it is done: as §1
The target in a further assay is PAK4 (Homo sapiens, UniProt O96013). Briefly: Kinase screening. It counts as biochemical. How it is done:
as §1

The target in another assay is EPHB1 (Homo sapiens, UniProt P54762). Briefly: Kinase screening. The format is biochemical. As to the method:
as §1

A further assay has as its target IGF1R (Homo sapiens, UniProt P08069). Kind of assay: Kinase screening. It counts as biochemical. As to the method: as §1
A further assay deals with CDC42 BPB (MRCKB) (Homo sapiens, UniProt Q9Y5S2). Kind of assay: Kinase screening. It counts as biochemical. How it is done: as §1
In a further assay the target is PIK3C3 (hVPS34) (Homo sapiens, UniProt Q8NEB9). Briefly: Kinase screening. It counts as biochemical. How it is done:
as §1

In a further assay the target is JAK1 (Homo sapiens, UniProt P23458). Briefly: Kinase screening. It counts as biochemical. How it is done: as §1
The target of the next assay is MAPK8 (JNK1) (Homo sapiens, UniProt P45983). Briefly: Kinase screening. The format is biochemical. How it is done:
as §1

Another assay deals with MAP2K2 (MEK2) (Homo sapiens, UniProt P36507). Kind of assay: Kinase screening. It counts as biochemical. How it is done:
as §1

Another assay deals with ABL1 (Homo sapiens, UniProt P00519). Briefly: Kinase screening. The format is biochemical. As to the method:
as §1

Another assay deals with AKT2 (PKB beta) (Homo sapiens, UniProt P31751). Kind of assay: Kinase screening. It counts as biochemical. As to the method:
as §1

For the next assay, the target named is EGFR (ErbB1) (Homo sapiens, UniProt P00533). Briefly: Kinase screening. The format is biochemical. As to the method: as §1
A further assay deals with CDK5/p25 (Homo sapiens, UniProt Q00535). Briefly: Kinase screening. The format is biochemical. How it is done: as §1
In the next assay the target is CDK1/cyclin B (Homo sapiens, UniProt P06493). Briefly: Kinase screening. The format is biochemical. As to the method: as §1
The target of the next assay is ROCK1 (Homo sapiens, UniProt Q13464). Kind of assay: Kinase screening. The format is biochemical. As to the method:
as §1

A further assay deals with JAK3 (Homo sapiens, UniProt P52333). Briefly: Kinase screening. It counts as biochemical. How it is done: as §1
A further assay deals with FRAP1 (mTOR) (Homo sapiens, UniProt P42345). Kind of assay: Kinase screening. The format is biochemical. How it is done: as §1
The next assay addresses PAK7 (KIAA1264) (Homo sapiens, UniProt Q9P286). Briefly: Kinase screening. The format is biochemical. As to the method:
as §1

Another assay concerns the target FLT3 (Homo sapiens, UniProt P36888). Briefly: Kinase screening. It counts as biochemical. As to the method: as §1
The next assay addresses PAK6 (Homo sapiens, UniProt Q9NQU5). Kind of assay: Kinase screening. It counts as biochemical. As to the method: as §1
For assay [1], the target named is PIK3CA/PIK3R1 (p110 alpha/p85 alpha) (Homo sapiens, UniProt P42336). Briefly: Kinase screening. The format is biochemical. As to the method: as §1
Assay [2] concerns the target PIK3CD/PIK3R1 (p110 delta/p85 alpha) (Homo sapiens, UniProt O00329). Briefly: Kinase screening. It counts as biochemical. As to the method:
as §1

A further assay concerns the target ROCK2 (Homo sapiens, UniProt O75116). Kind of assay: Kinase screening. The format is biochemical. How it is done:
as §1

The target in the next assay is AKT1 (PKB alpha) (Homo sapiens, UniProt P31749). Kind of assay: Kinase screening. It counts as biochemical. As to the method: as §1
A further assay deals with PAK2 (PAK65) (Homo sapiens, UniProt Q13177). Briefly: Kinase screening. It counts as biochemical. As to the method: as §1
In another assay the target is PIK3C2B (PI3K-C2 beta) (Homo sapiens, UniProt O00750). Briefly: Kinase screening. It counts as biochemical. As to the method:
as §1

Another assay deals with MAPK9 (JNK2) (Homo sapiens, UniProt P45984). Kind of assay: Kinase screening. It counts as biochemical. How it is done:
as §1

The target of another assay is LIMK2 (Homo sapiens, UniProt P53671). Briefly: Kinase screening. The format is biochemical. As to the method:
as §1

For the next assay, the target named is PDGFRA (PDGFR alpha) (Homo sapiens, UniProt P16234). Kind of assay: Kinase screening. It counts as biochemical. As to the method:
as §1

For the next assay, the system named is cancer cell. Kind of assay: Cellular proliferation assay of SAR analogs. It counts as cell-based. Particulars: among 48 tested SAR analogs. As to the method:
SAR was performed to identify analogs of Compound that have improved properties. 56 Compounds identified in this SAR study were synthesized. Among them, 48 compounds were tested a cellular proliferation assay.

In a further assay the test system is SEM cell line. Briefly: Annexin V flow assay for apoptosis and cell death, SEM. The format is cell-based. Particulars: Annexin V staining. An excerpt:
FIGS. 3a-3c show three graphs illustrating the dose dependent inhibition of proliferation of Compound 1 in SEM, P12, and Loucy cells as measured by MTS assay. […] Compound 1 was further analyzed for its effect on cell apoptosis and cell death using a flow based assay using Annexin V staining.
Compound 2 was further analyzed for its effect on cell apoptosis and cell death using a flow based assay using Annexin V staining.

For another assay, the system named is P12-ICHIKAWA cells. Kind of assay: In vivo P12-ICHIKAWA leukemia model in NSG mice. The note with it: 50 mg/Kg body weight oral twice daily; supine position, vs vehicle. How it is done:
Specifically, cell line P12-ICHIKAWA was marked with a lentiviral vector coexpressing Luciferase and an mCherry fluorescent tag. Sorted mCherry positive P12-ICHIKAWA cells were injected into immunodeficient (NSG) mice. About 3 weeks after injection, based on an estimation of the tumor burden by quantitative assessment of bioluminescence imaging (BLI) in vivo, mice began treatment. Mice received twice daily oral doses of Compound 2 (50 mg/Kg body weight) or placebo. Each of the Compound 2 group and the vehicle group had eight mice. BLI analysis was performed three times a week to assess tumor burden. Toxicity was assessed by evaluating body weight in treated mice vs vehicle group (see FIG. 13a). The experiment was halted at day 18 after beginning of treatment due to the very aggressive nature of the disease in the vehicle group. Mice were imaged in the supine and prone position. FIG. 13b summarizes BLI values normalized to treatment start in both the compound 2 group and the vehicle group in the supine position.

A further assay concerns the target Rac1 (Homo sapiens, UniProt P63000). Kind of assay: 2D NMR spectroscopy binding assay. Particulars: 50 μM Rac1 and 250 μM Compound 2. How it is done:
(§2) Compound 1 was tested for its efficacy in binding with Rac1 in two independent binding assays, i.e., 2D NMR spectroscopy and Homologous time resolved fluorescence assay (HTRF).
(§3) In the 2D NMR assay, samples containing 50 μM Rac1 and 250 μM or 400 μM Compound 1 were used.
(§4) Compound 2 was tested for its efficacy in binding with Rac1 in two independent binding assays, i.e., 2D NMR spectroscopy and Homologous time resolved fluorescence assay (HTRF).
(§5) In the 2D NMR assay, a sample containing 50 μM Rac1 and 250 μM Compound 2 was used.

In the next assay the target is Tiam1-Rac complex (Homo sapiens, UniProt P63000). Briefly: Homologous time resolved fluorescence (HTRF) binding assay. How it is done:
as §2, §3, §4, §5
A general note: TR-FRET usually uses a lanthanide donor and a delayed reading to cut background.

A further assay deals with SEM cells. Briefly: Proliferation assay in SEM leukemia cells. The format is cell-based. Particulars: compared to Compound 1 (FIG. 12a). As to the method: Dose Dependent Inhibition of Proliferation The 100 compounds selected from the initial in silico screen were assayed for inhibition of proliferation in two leukemia cell lines, SEM and P12 by Cell Titer Glo. The cells for the proliferation assay were spun down and re-suspended. The cell suspension was then divided and the compound to be tested added in desired concentrations and subsequently plated. Following an incubation period, the Cell Titer Glo reagent (Promega CellTiter 96® Aqueous Non-Radioactive Cell Proliferation Assay) was added and allowed to incubate. The absorbance is subsequently measured at 490 nm using a plate reader. Each compound was analyzed for its effects on cell proliferation.
The lead compound, i.e. Compound 1, was analyzed for its effect on cell proliferation at various doses on three different leukemia cell lines: SEM, P12, and Loucy. In order to quantitate the percentage inhibition of cell proliferation, Cell Titer Glo analysis was completed as described in Example 2 above.
FIGS. 3a-3c show three graphs illustrating the dose dependent inhibition of proliferation of Compound 1 in SEM, P12, and Loucy cells as measured by MTS assay. […] Compound 1 was further analyzed for its effect on cell apoptosis and cell death using a flow based assay using Annexin V staining. […]

PAK2 (PAK65), sequence (Q13177 whole entry, species assumed): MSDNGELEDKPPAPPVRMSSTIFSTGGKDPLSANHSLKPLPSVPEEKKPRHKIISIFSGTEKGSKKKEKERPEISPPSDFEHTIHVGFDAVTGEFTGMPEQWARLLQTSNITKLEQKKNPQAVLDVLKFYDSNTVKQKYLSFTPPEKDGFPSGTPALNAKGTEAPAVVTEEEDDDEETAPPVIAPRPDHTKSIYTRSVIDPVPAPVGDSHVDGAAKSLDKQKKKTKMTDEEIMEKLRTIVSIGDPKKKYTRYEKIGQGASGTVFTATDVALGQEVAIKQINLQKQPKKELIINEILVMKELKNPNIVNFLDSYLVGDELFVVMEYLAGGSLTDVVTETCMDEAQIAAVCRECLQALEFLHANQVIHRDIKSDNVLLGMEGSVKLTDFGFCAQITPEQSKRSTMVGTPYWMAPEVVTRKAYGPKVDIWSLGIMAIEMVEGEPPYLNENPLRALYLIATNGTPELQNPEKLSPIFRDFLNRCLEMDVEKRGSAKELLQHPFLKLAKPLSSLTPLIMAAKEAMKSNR
JAK2, sequence (O60674 whole entry, species assumed): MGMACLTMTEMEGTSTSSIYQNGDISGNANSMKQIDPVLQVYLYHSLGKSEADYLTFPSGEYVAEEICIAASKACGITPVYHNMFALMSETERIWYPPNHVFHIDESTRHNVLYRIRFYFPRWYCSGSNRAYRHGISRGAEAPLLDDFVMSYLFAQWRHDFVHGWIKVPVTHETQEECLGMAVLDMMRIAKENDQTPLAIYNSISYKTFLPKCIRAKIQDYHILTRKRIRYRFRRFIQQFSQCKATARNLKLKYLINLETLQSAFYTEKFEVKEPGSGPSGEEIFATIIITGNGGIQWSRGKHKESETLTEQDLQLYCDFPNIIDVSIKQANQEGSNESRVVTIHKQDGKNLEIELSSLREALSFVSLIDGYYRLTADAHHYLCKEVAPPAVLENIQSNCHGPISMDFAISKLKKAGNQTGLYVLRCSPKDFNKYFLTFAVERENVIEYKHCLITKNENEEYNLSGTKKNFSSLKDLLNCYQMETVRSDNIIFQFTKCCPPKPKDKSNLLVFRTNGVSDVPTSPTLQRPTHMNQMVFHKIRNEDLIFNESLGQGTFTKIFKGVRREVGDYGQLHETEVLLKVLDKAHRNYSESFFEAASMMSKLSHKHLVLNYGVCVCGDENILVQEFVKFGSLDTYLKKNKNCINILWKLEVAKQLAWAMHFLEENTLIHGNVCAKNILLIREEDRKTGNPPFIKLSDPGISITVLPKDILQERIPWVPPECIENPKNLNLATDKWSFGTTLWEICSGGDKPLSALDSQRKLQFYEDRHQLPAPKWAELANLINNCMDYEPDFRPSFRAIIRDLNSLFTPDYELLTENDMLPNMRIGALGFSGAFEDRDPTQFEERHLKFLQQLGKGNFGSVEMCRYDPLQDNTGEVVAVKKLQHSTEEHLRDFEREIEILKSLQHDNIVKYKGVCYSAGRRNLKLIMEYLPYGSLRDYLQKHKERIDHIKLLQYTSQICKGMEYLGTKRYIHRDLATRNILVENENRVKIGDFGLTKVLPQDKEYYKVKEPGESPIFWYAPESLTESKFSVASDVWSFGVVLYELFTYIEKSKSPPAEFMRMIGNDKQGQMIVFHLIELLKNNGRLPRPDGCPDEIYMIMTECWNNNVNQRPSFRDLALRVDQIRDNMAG
KIT, sequence (P10721 26-976, species assumed): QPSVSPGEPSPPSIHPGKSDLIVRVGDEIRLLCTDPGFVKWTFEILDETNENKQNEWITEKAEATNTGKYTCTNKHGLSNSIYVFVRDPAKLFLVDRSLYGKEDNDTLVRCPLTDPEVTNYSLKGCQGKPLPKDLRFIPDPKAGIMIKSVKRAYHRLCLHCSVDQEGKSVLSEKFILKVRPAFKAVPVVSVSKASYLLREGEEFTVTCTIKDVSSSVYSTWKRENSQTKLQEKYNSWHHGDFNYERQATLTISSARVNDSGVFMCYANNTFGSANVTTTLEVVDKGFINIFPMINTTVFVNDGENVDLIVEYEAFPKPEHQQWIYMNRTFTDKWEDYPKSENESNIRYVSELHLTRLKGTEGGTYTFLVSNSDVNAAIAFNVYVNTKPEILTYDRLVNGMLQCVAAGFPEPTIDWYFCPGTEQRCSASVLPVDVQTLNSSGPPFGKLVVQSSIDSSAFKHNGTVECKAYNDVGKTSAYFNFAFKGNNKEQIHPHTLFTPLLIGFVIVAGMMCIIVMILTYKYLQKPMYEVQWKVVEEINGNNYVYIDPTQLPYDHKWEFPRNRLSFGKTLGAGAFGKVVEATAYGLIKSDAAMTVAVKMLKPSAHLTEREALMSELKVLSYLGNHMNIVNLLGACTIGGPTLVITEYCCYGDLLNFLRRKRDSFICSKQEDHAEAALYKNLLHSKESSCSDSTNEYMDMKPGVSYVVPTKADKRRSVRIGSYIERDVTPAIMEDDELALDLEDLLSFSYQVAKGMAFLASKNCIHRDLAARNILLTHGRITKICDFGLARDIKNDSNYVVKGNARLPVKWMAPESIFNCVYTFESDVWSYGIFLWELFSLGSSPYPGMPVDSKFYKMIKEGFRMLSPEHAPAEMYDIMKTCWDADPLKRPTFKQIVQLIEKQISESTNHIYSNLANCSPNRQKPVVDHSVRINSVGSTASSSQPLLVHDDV
PAK6, sequence (Q9NQU5 whole entry, species assumed): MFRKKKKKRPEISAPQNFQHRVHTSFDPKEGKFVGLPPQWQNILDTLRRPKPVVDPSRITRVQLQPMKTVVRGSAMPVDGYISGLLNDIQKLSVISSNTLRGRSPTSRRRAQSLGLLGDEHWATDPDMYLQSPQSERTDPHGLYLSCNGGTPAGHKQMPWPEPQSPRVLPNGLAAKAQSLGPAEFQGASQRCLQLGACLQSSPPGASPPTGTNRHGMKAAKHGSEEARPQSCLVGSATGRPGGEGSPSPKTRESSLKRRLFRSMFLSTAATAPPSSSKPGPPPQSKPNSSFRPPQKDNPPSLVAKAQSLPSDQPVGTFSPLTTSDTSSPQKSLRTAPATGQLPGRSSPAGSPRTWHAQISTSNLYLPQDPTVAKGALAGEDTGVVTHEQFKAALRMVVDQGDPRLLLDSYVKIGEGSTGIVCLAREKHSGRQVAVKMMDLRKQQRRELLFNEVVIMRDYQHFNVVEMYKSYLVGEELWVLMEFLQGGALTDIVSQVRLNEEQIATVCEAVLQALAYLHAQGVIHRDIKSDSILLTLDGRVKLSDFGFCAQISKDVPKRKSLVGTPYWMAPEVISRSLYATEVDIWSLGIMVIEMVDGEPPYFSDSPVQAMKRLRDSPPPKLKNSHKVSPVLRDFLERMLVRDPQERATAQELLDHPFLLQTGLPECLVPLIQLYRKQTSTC
AKT1 (PKB alpha), sequence (P31749 whole entry, species assumed): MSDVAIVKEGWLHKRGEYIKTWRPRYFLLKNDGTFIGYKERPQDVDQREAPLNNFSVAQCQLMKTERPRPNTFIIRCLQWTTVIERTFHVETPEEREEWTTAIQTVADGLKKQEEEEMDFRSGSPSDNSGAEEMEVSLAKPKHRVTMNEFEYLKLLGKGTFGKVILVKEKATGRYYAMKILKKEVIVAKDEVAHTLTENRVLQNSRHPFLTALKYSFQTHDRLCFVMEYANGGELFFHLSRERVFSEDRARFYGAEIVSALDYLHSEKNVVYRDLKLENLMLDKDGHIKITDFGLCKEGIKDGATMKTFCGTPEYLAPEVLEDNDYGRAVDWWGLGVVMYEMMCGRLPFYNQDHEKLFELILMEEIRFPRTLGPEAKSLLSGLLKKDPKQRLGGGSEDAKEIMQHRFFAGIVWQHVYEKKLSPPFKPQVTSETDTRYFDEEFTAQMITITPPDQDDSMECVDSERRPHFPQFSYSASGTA
LIMK2, sequence (P53671 whole entry, species assumed): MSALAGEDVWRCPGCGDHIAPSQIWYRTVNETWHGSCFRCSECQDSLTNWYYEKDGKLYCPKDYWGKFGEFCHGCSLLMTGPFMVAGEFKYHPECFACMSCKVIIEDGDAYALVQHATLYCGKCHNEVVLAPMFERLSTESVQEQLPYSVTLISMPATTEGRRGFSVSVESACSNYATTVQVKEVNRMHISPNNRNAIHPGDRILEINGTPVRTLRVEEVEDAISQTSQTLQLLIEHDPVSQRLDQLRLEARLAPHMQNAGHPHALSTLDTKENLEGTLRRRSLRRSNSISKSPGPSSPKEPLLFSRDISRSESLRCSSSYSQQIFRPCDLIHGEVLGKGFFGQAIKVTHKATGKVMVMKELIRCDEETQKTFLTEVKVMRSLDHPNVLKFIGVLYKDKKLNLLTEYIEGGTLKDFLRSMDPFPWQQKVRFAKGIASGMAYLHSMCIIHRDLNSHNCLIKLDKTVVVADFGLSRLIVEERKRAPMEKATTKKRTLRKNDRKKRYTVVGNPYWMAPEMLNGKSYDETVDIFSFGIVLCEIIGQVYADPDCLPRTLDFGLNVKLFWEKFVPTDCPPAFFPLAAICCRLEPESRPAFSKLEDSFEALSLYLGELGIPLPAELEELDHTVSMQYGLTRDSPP
AKT2 (PKB beta), sequence (P31751 whole entry, species assumed): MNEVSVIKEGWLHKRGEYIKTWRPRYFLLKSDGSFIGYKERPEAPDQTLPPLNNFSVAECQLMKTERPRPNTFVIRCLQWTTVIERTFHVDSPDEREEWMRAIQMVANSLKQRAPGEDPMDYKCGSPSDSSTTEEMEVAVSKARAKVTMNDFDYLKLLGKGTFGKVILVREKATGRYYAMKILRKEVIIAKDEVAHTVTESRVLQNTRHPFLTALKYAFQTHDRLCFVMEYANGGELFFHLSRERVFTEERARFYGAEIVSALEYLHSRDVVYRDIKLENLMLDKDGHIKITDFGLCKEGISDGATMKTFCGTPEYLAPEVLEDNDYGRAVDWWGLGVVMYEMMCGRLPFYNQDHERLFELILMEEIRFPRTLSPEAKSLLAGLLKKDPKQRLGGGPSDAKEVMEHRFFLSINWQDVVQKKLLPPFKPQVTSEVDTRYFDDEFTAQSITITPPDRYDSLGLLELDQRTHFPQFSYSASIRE

As for `CCN(CC)CCCC(C)Nc1nc(C)cc(Nc2ccc3nc(C)cc(N)c3c2)n1.Cl.Cl.Cl` (racemic) [NSC23766, N6-[2-[[4-(diethylamino)-1-methylbutyl]amino]-6-methyl-4-pyrimidinyl]-2-methyl-4,6-quinolinediamine trihydrochloride, reference compound], the inhibition percentage is on record as 6.3 percentage at PAK3; 37.7 percentage on JAK2; 24.4 percentage at PAK1; −14.2 percentage against LIMK1; 11.5 percentage on MAPK3 (ERK1); 14.3 percentage against MAP3K2 (MEKK2). Moreover, the inhibition percentage against SRC is on record as 43.6 percentage; against PIK3C2A (PI3K-C2 alpha), −3.3 percentage; against CDC42 BPA (MRCKA), −1.8 percentage; against SYK it was 39.4 percentage; against KIT it was 26.3 percentage; against MYLK (MLCK), 1.6 percentage. In addition, the inhibition percentage is −0.2 percentage against PAK4; 19.8 percentage at EPHB1; 42.9 percentage against IGF1R; −4.6 percentage on CDC42 BPB (MRCKB); −17.8 percentage at PIK3C3 (hVPS34); 50.6 percentage on JAK1. The inhibition percentage against MAPK8 (JNK1) is reported as −1.1 percentage; against MAP2K2 (MEK2), 20.7 percentage; against ABL1, 19.3 percentage; against AKT2 (PKB beta) it was −22.9 percentage; on EGFR (ErbB1) it was 24.6 percentage; against CDK5/p25, 11.4 percentage. In addition, the inhibition percentage is 1.3 percentage on CDK1/cyclin B; −2.0 percentage at ROCK1; 21.9 percentage against JAK3; 27.0 percentage against FRAP1 (mTOR); 4.9 percentage against PAK7 (KIAA1264); 31.4 percentage against FLT3. The inhibition percentage is 8.9 percentage on PAK6; −0.4 percentage in assay [1]; −5.8 percentage in assay [2]; −14.7 percentage at ROCK2; −23.3 percentage against AKT1 (PKB alpha); 0.3 percentage against PAK2 (PAK65). The inhibition percentage against PIK3C2B (PI3K-C2 beta) is −1.8 percentage; against MAPK9 (JNK2), −8.9 percentage; against LIMK2, −3.5 percentage; against PDGFRA (PDGFR alpha), 34.8 percentage.
Take `CCc1ccc(CN(C)C(=O)CCc2nnc(CCc3c[nH]c4ccccc34)o2)cc1` [Compound 2]: the “inhibition of cancer cell proliferation” value in the assay with cancer cell is recorded as “strongest inhibition”. The “cell apoptosis and cell death” value with SEM cell line is “caused cells apoptosis and cell death”. In the assay on P12-ICHIKAWA cells, the “bioluminescence in the mice” value is “significantly reduced”. Moreover, the “binding to Rac1 by 2D NMR” value on Rac1 is recorded as “did not indicate any significant binding”. Besides, the “binding in the HTRF assay” value on Tiam1-Rac complex is reported as “no binding”. Also, in the assay on SEM cells, the “efficacy in inhibiting proliferation of SEM cells” value is reported as “improved efficacy”.
